According to patent US8741659B2, “Composition for measuring the binding affinity between nucleic acid and test substance, and use thereof” (Osaka University, priority 2007, dated 2014):

Columns and labels:
RRE = test: Displacement assay using X2S; format: binding, HIV-1
From the text: In this Example, X2S was used to measure a binding affinity between a test substance and RRE. As the test substance, Rev protein (supplied by Professor Takashi MORII, Graduates School of Energy Science, Kyoto University), aminoglycoside antibiotic neomycin (available from Sigma-Aldrich, product number; N-1876) (hereinafter, simply referred to as “neomycin”), and thrombin (available from Bachem, product number; AG H-8550) were used. […] The structure of Rev protein is shown in FIG. 9, and the amino acid sequence of Rev protein is shown in SEQ ID NO: 5. FIG. 9 is a view schematically illustrating the structure of Rev protein. Further, the structure of thrombin is shown in FIG. 10, and the amino acid sequence of thrombin is shown in SEQ ID NO: 6. FIG. 10 is a view schematically illustrating the structure of thrombin.
Firstly, in the same manner as in Example 3, X2S and RRE were dissolved in a cacodylate buffer solution (sodium cacodylate: 10 mM, pH 7.0; NaCl: 100 mM) each at 2 μM. Thus, an X2S-RRE solution was prepared.
To the X2S-RRE solution, Rev protein was added in steps at 0 μM, 0.4 μM, 0.8 μM, 1.2 μM, 1.6 μM, 2.0 μM, 2.4 μM, 2.8 μM, 3.2 μM, 3.6 μM, and 4.0 μM. Further, a fluorescence intensity was measured at each concentration. Similarly, to the X2S-RRE solution, neomycin was added in steps at 0 μM, 0.4 μM, 0.8 μM, 1.2 μM, 1.6 μM, 2.0 μM, 2.4 μM, 2.8 μM, 3.2 μM, 3.6 μM, and 4.0 μM. Further, a fluorescence intensity was measured at each concentration. Similarly, to the X2S-RRE solution, thrombin was added in steps at 0 μM, 0.4 μM, 0.8 μM, 1.2 μM, 1.6 μM, 2.0 μM, 2.4 μM, 2.8 μM, 3.2 μM, 3.6 μM, and 4.0 μM. Further, a fluorescence intensity was measured at each concentration. The fluorescence intensities were measured in the same manner as that described in Example 2.
FIG. 11 is a view illustrating a result of the measurement of a binding affinity between Rev protein and RRE; FIG. 12 is a view illustrating a result of the measurement of a binding affinity between neomycin and RRE; and FIG. 13 is a view illustrating a result of the measurement of a binding affinity between thrombin and RRE. In each of FIGS. 11 to 13, the horizontal axis represents the fluorescence wavelength, whereas the vertical axis represents the fluorescence intensity. […] Furthermore, along the direction of the arrow extending from the curved line at the bottom, the curved lines are arranged in order of increasing amount of the test substance which was added.
FIG. 14 is a view plotting the fluorescence intensities at a fluorescence wavelength of 453 nm shown in the results illustrated in FIGS. 11 to 13. The horizontal axis represents the concentration of each test substance, whereas the vertical axis represents the fluorescence intensity. In FIG. 14, the circle marks represent the result obtained in the case involving use of Rev protein, the square marks represent the result obtained in the case involving use of neomycin, and the triangle marks represent the result obtained in the case involving use of thrombin.
A displacement assay using X2S was performed in the same manner as that described in Example 5, except that, in this Example, fluorescence was measured also when Rev protein was added at concentrations of 4.4 μM and 4.8 μM.
FIG. 16 is a view illustrating the result of the displacement assay using X2S. The horizontal axis represents the fluorescence wavelength, whereas the vertical axis represents the fluorescence intensity.

[1] = tested on: single strand RNA (ssRNA), SEQ ID NO: 7; test: Binding between X2S and single strand RNA
Method: In this Example, binding between X2S and a single strand RNA (hereinafter, referred to as “ssRNA”) was evaluated. Specifically, the evaluation was performed in the same manner as that described in Example 2. However, the evaluation performed in this Example differed from that performed in Example 2 in the following points: Instead of the double strand RNA, an ssRNA was used; The ssRNA was added in steps at 0 μM, 1 μM, 2 μM, 3 μM, 4 μM, 5 μM, 6 μM, 7 μM, and 8 μM; The ssRNA was purchased from: Hokkaido System Science Co., Ltd. The sequence of the ssRNA is shown in SEQ ID NO: 7.
FIG. 18 is a view illustrating the result of the evaluation of binding between X2S and the ssRNA. The horizontal axis represents the fluorescence wavelength, whereas the vertical axis represents the fluorescence intensity.

With `NCCOc1ccc2oc3ccc(OCCN)cc3c(=O)c2c1` [X2S, 2,7-bis(2-aminoethoxy)xanthen-9-one] the “change in the fluorescence intensity, X2S compared with ethidium bromide” value (RRE; FIG. 11 compared with FIG. 15) was “greater in the case involving use of X2S than in the case involving use of ethidium bromide”, the “concentration at which a change in fluorescence intensity was still clearly observed” value (RRE; Rev protein up to 4.8 μM) was 3.2 µM and the “ultimate increase of fluorescence intensity” value (RRE; Rev protein up to 4.8 μM) was “approximately 80%”. The “amount of change of fluorescence intensity” value ([1]; 0 μM versus 8 μM ssRNA) was “approximately 50%” and the “binding to ssRNA” value ([1]; ssRNA 0-8 μM) was “binds to an ssRNA”.
